The values below come from paper PMC6584507 (Scientific Reports, 2019).

Structures are written as SMILES. Values after ≈ are worked out from the molar mass of the structure shown.

The target of data set [1] is T1, hTSLP/hTSLPR interaction (Homo sapiens, UniProt Q969D9).
T1 construct: human TSLP28–159 with thrombin cleavage site at C-terminus; thrombin cleavage site (C); 8xHis (from vector pAB-bee-8xHis) (C, cleaved yes); made in house; host or cells: Trichoplusia ni High-Five cells, baculovirus (secreted)
The experiment in a line: ELISA of hTSLP/hTSLPR interaction (FLAG-hTSLP, hTSLPR-His).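 As to all read-outs here: His-tagged hTSLPR captured on Ni-NTA plates, compounds plus FLAG-hTSLP incubated 18 h at 4 °C, bound ligand detected with HRP anti-FLAG, OD 450 nm relative to control.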 In kind it is binding. Conditions: for inhibition at 300 µM / inhibition at 1000 µM: read-out: % inhibition (hTSLP-inhibitory activity by ELISA). In general terms: An ELISA detects its analyte on a solid surface through an enzyme-linked reagent.

Data set [2] in a line: Kinetic aqueous solubility. In kind it is physicochemical. Conditions: 0.1 M potassium phosphate buffer, kinetic from dmso stock, PBS / phosphate buffer pH 7.4. As to the method: In brief, 10 mM stock solution of tested compounds was prepared in DMSO. 25 μL of the stock solution was added to a 1-mL uniprep vial containing 475 μL of 0.1 M potassium phosphate buffer (pH 7.4), and was shaken at 800 rpm for 90 min at room temperature. Following shaking, the mixture was filtered by slowly pressing the upper tube of the 1 mL Mini-Uniprep^TM filter (PTFE membrane, 0.45 μm). 250 μL of the filtrate solution was then transferred to a HPLC vial containing equal volume of acetonitrile.

Data set [3] has as its system pSTAT5 in TSLP-stimulated HMC-1 cells. The experiment in a line: Western blot analysis of STAT5 phosphorylation. Format: cell-based, human. Conditions: TSLP 20 ng/mL for 2 h. As to the method: (§1) HMC-1 cells were obtained from the Department of Food Technology and Inflammatory Disease Research Center (Hoseo University, Asan, Chungnam, Korea). Cells were cultured in Iscove’s modified Dulbecco’s medium (IMDM; Hyclone Laboratories Inc, USA) supplemented with 10% FBS and 1% Penicillin-streptomycin (PS; Gibco Industries Inc, USA) and incubated at 37 °C under humidified atmosphere of 95% air and 5% CO2. Recombinant hTSLP was purchased from R&D Systems (Minneapolis, USA).
[…] Activated cells were lysed and separated by 10% sodium dodecyl sulfate-polyacrylamide gel electrophoresis (SDS-PAGE). After electrophoresis, proteins were transferred to nitrocellulose membranes. The membranes were blocked, incubated with primary antibodies (1:700 dilution in PBS with 0.05% Tween-20), and developed using peroxidase-conjugated secondary antibodies (1:3000 dilution in PBS with 0.05% Tween-20). Proteins were visualized by enhanced chemiluminescence (Amersham Bioseciences, Piscataway, NJ, USA) according to the manufacturer’s instructions.

The subject of data set [4] is STAT5 phosphorylation in hTSLP-stimulated HMC-1 cells. The experiment in a line: STAT5 assay (STAT5 phosphorylation, flow cytometry). In kind it is cell-based, human. Here is the method: as §1
Intracellular phospho-STAT5 (pSTAT5) staining method was based on the protocol obtained from the laboratory of Susan Kaech, Department of Immunobiology, Yale University School of Medicine (New Haven, Connecticut, USA). Briefly, HMC-1 cells were seeded in 96-well U-bottom plate at a density of 1 × 10^7 cells/mL and stimulated with 100 ng/mL recombinant hTSLP alone or with 1 for 30 min. After stimulation, cells were fixed with BD Cytofix/Cytoperm (BD Biosciences, USA) solution for 10 min. Fixed cells were then permeabilized with ice-cold methanol for 30 min, and intracellular pSTAT5 was stained with Alexa Fluor 647 mouse anti-STAT5 (pY694; BD Biosciences, USA) (1:10 dilution in FACS buffer) for 30 min. Stained cells were further fixed with BD Cytofix/Cytoperm solution for 10 min and re-suspended in FACS buffer for flow cytometry analysis. Cells were analyzed by a BD LSR Fortessa Flow cytometry (BD Biosciences, USA). FACS data were analyzed using FlowJo software Ver 9. 7. 6 (Tree Star Inc., USA).
Background: A flow cytometer gives signals particle by particle.

T1 sequence (Q969D9 28-159): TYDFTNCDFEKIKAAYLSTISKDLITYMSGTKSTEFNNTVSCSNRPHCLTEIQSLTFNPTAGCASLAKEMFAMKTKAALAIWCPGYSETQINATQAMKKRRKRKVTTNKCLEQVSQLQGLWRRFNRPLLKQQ

Regarding `O=C(O)[C@H]1O[C@@H](Oc2cc3oc(-c4ccccc4)cc(=O)c3c(O)c2O)[C@H](O)[C@@H](O)[C@@H]1O` [Compound 1a, baicalin], the inhibition (usually the relative decrease from the control value, in per cent) at 300 µM in data set [1] (0.3 mM) came out at 12.1 ± 1.8%. Further, in data set [1] (1 mM), the inhibition at 1000 µM was determined as 19.9 ± 0.2%. Take `COc1c(O)cc(O)c2c(=O)cc(-c3ccccc3)oc12` [Compound 1b, wogonin]: in data set [1] (0.3 mM), the inhibition at 300 µM was less than 5%. The inhibition at 1000 µM in data set [1] (1 mM) is less than 5%.

On to `COc1c(O)cc2oc(-c3ccccc3)cc(=O)c2c1O` [Compound 1c, oroxylin A], for which, in data set [1] (0.3 mM), the “% inhibition (hTSLP-inhibitory activity by ELISA)” value is less than 5%. In data set [1] (1 mM), the inhibition at 1000 µM is 11.6 ± 6.3%. On to `COc1cccc(O)c1-c1cc(=O)c2c(O)c(OC)c(OC)c(OC)c2o1` [Compound 1d, skullcapflavone II], for which the inhibition at 300 µM in data set [1] (0.3 mM) is less than 5%. Moreover, the inhibition at 1000 µM in data set [1] (1 mM) is less than 5%. For the molecule `COc1c(O)ccc(O)c1-c1cc(=O)c2c(O)cc(O)c(OC)c2o1` [Compound 1e, viscidulin III], the inhibition at 300 µM in data set [1] (0.3 mM) worked out at 12.8 ± 0.6%. The inhibition at 1000 µM in data set [1] (1 mM) was 26.3%. On to `O=C1CC(c2c(O)cccc2O)Oc2cc(O)cc(O)c21` (centres unmarked) [Compound 1f, 2′,5,6′,7-tetrahydroflavanone], for which the inhibition at 300 µM in data set [1] (0.3 mM) worked out at 14 ± 3.8%. In data set [1] (1 mM), the inhibition at 1000 µM was determined as 8.4 ± 5.8%. Regarding `COc1cc2oc(-c3ccccc3)cc(=O)c2c(OC)c1OC` [Compound 2], in data set [1] (0.3 mM), the inhibition at 300 µM is less than 5%. Also, in data set [1] (1 mM), the inhibition at 1000 µM was found to be 12 ± 2.8%. For `O=c1cc(-c2ccccc2)oc2cc(O)ccc12` [Compound 3a] the same measures were 16.4 ± 2.7% and 23.3 ± 6.8%. As to `O=c1cc(-c2ccccc2)oc2ccc(O)cc12` [Compound 3b], the inhibition at 300 µM in data set [1] (0.3 mM) is 22.2 ± 2.5%. For the same molecule, the inhibition at 1000 µM in data set [1] (1 mM) turned out to be 38.7 ± 5.3%.

On to `O=c1cc(-c2ccccc2)oc2cccc(O)c12` [Compound 3c], for which the inhibition at 300 µM in data set [1] (0.3 mM) is 24.1 ± 5.4%. For the same molecule, in data set [1] (1 mM), the inhibition at 1000 µM worked out at 16.8 ± 2%.

Regarding `O=c1cc(-c2ccccc2)oc2cc(O)cc(O)c12` [Compound 6a, 5,7-Dihydroxy-2-phenyl-4H-chromen-4-one], the solubility (kinetic) – broadly, solubility judged after dilution from a stock solution rather than from solid – at 90 min in data set [2] was found to be 30 µM (≈ 7.63 µg/mL).

Turning to `O=c1cc(-c2ccc(O)cc2)oc2cc(O)cc(O)c12` [Compound 6b, 5,7-Dihydroxy-2-(4-hydroxyphenyl)-4H-chromen-4-one], the solubility (kinetic) at 90 min in data set [2] came out at 486 µM (≈ 131 µg/mL). For the molecule `O=C1CC(c2ccccc2)Oc2cc(O)cc(O)c21` (centres unmarked) [Compound 7a, 5,7-Dihydroxy-2-phenylchroman-4-one], the “hTSLP-inhibitory activity by ELISA, comparison in words” value in data set [1] is recorded as “weaker”. The same molecule showed a kinetic solubility at 90 min in data set [2] of 111 µM (≈ 28.4 µg/mL). Take `O=C1CC(c2ccc(O)cc2)Oc2cc(O)cc(O)c21` (centres unmarked) [Compound 7b, 5,7-Dihydroxy-2-(4-hydroxyphenyl)chroman-4-one]: the “hTSLP-inhibitory activity by ELISA, comparison in words” value in data set [1] is listed as “weaker”. The molecule also returned a solubility (kinetic) at 90 min in data set [2] of 505 µM (≈ 137 µg/mL). Take `O=c1cc(-c2cccc(-c3ccc(O)cc3)c2)oc2cc(O)cc(O)c12` [Compound 10a, 5,7-Dihydroxy-2-(4′-hydroxy-[1,1′-biphenyl]-3-yl)-4H-chromen-4-one]: the inhibition at 300 µM in data set [1] (0.3 mM) was more than 50%.

Take `O=c1cc(-c2cccc(-c3ccccc3)c2)oc2cc(O)c(O)cc12` [Compound 10e, 2-([1,1′-Biphenyl]-3-yl)-6,7-dihydroxy-4H-chromen-4-one]: 177 µM corresponded to half-maximal inhibition in data set [1] (IC50). The inhibition at 300 µM in data set [1] (0.3 mM) was more than 50%. Moreover, the “inhibition of STAT5 phosphorylation, Western blot (in words)” value in data set [3] (HMC-1 cells pretreated) is reported as “stronger than compound 1”. Taken in the same sequence, the figures for `O=c1cc(-c2cccc(-c3ccc(O)cc3)c2)oc2cc(O)c(O)cc12` [Compound 10g, 6,7-Dihydroxy-2-(4′-hydroxy-[1,1′-biphenyl]-3-yl)-4H-chromen-4-one] were 210 µM, more than 50% and “stronger than compound 1”. On to `O=c1cc(-c2cccc(-c3ccc([N+](=O)[O-])cc3)c2)oc2cc(O)c(O)cc12` [Compound 10h, 6,7-Dihydroxy-2-(4′-nitro-[1,1′-biphenyl]-3-yl)-4H-chromen-4-one], for which the inhibition at 300 µM in data set [1] (0.3 mM) is more than 50%. In the case of `O=C1CC(c2cccc(-c3ccc(O)cc3)c2)Oc2cc(O)cc(O)c21` (centres unmarked) [Compound 11a, 5,7-Dihydroxy-2-(4′-hydroxy-[1,1′-biphenyl]-3-yl)chroman-4-one], inhibition in data set [1] was half-maximal at 370 µM (IC50). For the same molecule, in data set [3] (even at 0.01 μM, HMC-1 cells), the “inhibition of STAT5 phosphorylation, Western blot (in words)” value is recorded as “strongly inhibited”. The molecule further showed a solubility (kinetic) at 90 min in data set [2] of 66 µM (≈ 23 µg/mL). Take `O=C(O)[C@H]1O[C@@H](Oc2cc3oc(-c4ccccc4)cc(=O)c3c(O)c2O)[C@H](O)[C@@H](O)[C@@H]1O` [KUP-040, baicalin]: the STAT5 phosphorylation % was found to be 69.7% in data set [4] (3 µM) and 68.8% in data set [4] (10 μM).

As for `COc1c(O)cc2oc(-c3ccccc3)cc(=O)c2c1O` [KUP-119, oroxylin A], the “% inhibition (hTSLP-inhibitory activity by ELISA)” value was found to be 1.7 ± 9.0% in data set [1] (0.3 mM) and 11.6 ± 6.3% in data set [1] (1 mM).
